Source: paper PMC10950897, “VCF1 is a p97/VCP cofactor promoting recognition of ubiquitylated p97-UFD1-NPL4 substrates” (Nature Communications, 2024)
Blank lines part the entries; values can stand above or below the substance they belong to.

Key:
[1] = test system: Ub(G76V)-GFP, U2OS cells; test: QIBC of Ub(G76V)-GFP after siRNA; assay type: cell-based, human; conditions: siRNA 20 nM, QIBC >10,000 cells
Procedure: (§1) U2OS (catalog no. HTB-96) cells were obtained from ATCC. HEK293-EBNA1-6E cells were a kind gift from Yves Durocher (National Research Council Canada, Montreal, Canada). All mammalian cell lines were cultured under standard conditions at 37 °C and 5% CO2 in DMEM (Thermo) supplemented with 10% FBS (v/v) and penicillin-streptomycin (Thermo). Recombination cloning-compatible U2OS cells were generated using the Flp-In T-Rex Core Kit (Thermo) according to the manufacturer’s instructions and maintained under selection using Blasticidin (Invivogen) and Zeocin (Thermo). To generate cell lines stably expressing GFP-VCF1, U2OS Flp-In T-Rex cells (Thermo) were co-transfected with GFP-VCF1 constructs and pOG44 (Thermo) plasmids, followed by selection with Hygromycin (Invitrogen). Single clones were carefully screened for uniform expression of ectopic GFP-VCF1 at low levels and maintained under selection with Blasticidin and Hygromycin. To induce GFP-VCF1 expression, cells were treated with Doxycycline (DOX) (0.5 µg/ml) for 16 h. U2OS cell lines stably expressing Ub(G76V)-GFP or Ub(G76V)-GFP-20AA were described previously. A U2OS cell line stably expressing Ub(G76V)-GFP-NES was generated under G418 (Invivogen) selection. […]
Mammalian cells grown on coverslips were fixed in formalin buffer (VWR) for 15 min at room temperature (RT). […] Quantitative image-based cytometry (QIBC) was performed as described. […]

[2] = test system: GFP-VCF1 WT interactome, U2OS cells; test: GFP IP mass spectrometry of VCF1-interacting proteins, non-denaturing EBC buffer (+DOX/-DOX); assay type: binding, human
Procedure: (§2) U2OS (catalog no. HTB-96) cells were obtained from ATCC. HEK293-EBNA1-6E cells were a kind gift from Yves Durocher (National Research Council Canada, Montreal, Canada). All mammalian cell lines were cultured under standard conditions at 37 °C and 5% CO2 in DMEM (Thermo) supplemented with 10% FBS (v/v) and penicillin-streptomycin (Thermo). Recombination cloning-compatible U2OS cells were generated using the Flp-In T-Rex Core Kit (Thermo) according to the manufacturer’s instructions and maintained under selection using Blasticidin (Invivogen) and Zeocin (Thermo). To generate cell lines stably expressing GFP-VCF1, U2OS Flp-In T-Rex cells (Thermo) were co-transfected with GFP-VCF1 constructs and pOG44 (Thermo) plasmids, followed by selection with Hygromycin (Invitrogen). Single clones were carefully screened for uniform expression of ectopic GFP-VCF1 at low levels and maintained under selection with Blasticidin and Hygromycin. To induce GFP-VCF1 expression, cells were treated with Doxycycline (DOX) (0.5 µg/ml) for 16 h. U2OS cell lines stably expressing Ub(G76V)-GFP or Ub(G76V)-GFP-20AA were described previously. A U2OS cell line stably expressing Ub(G76V)-GFP-NES was generated under G418 (Invivogen) selection. Clones with low baseline GFP expression were visually screened for low basal GFP expression. All cell lines used in this study were regularly tested negative for mycoplasma infection and were not authenticated.
(§3) Immunoblotting was performed as previously described. Immunoprecipitation (IP) of HA-tagged proteins was performed using Anti-HA Affinity matrix (Roche) under denaturing conditions, unless otherwise stated. GFP-trap and […] Fab-trap agarose (Chromotek) were used according to manufacturer’s instructions. Cell lysis was performed using RIPA buffer (140 mM NaCl; 10 mM Tris-HCl, pH 8.0; 0.1% sodium deoxycholate; 1% Triton X-100; 0.1% SDS; 1 mM EDTA; 0.5 mM EGTA) or EBC buffer (50 mM Tris, pH 7.5; 150 mM NaCl; 1 mM EDTA; 0.5% NP-40, 1 mM DTT). IPs were washed in non-denaturing buffer (50 mM Tris-HCl, pH 7.5; 150 mM NaCl; 0.5 mM EDTA). Cell lysis and IP under partially denaturing conditions were performed using denaturing buffer (20 mM Tris-HCl, pH 7.5; 50 mM NaCl; 0.5% sodium deoxycholate; 0.5% NP-40; 0.5% SDS; 1 mM EDTA). All lysis and wash buffers were supplemented with 1 mM fresh PMSF Protease Inhibitor (Thermo), complete EDTA-free protease inhibitor Cocktail Tablets (Roche), 1.25 mM N-ethylmaleimide (Sigma) and 50 µM PR-619 (Calbiochem).
(§4) GFP-Trap agarose (Chromotek) pulldowns were subjected to partial on-bead digestion for peptide elution, by addition of 100 µl of elution buffer (50 mM Tris, pH 7.5; 2 M urea; 2 mM DTT; 20 µg/ml trypsin) and incubation at 37 °C for 30 min. To carry out alkylation, 25 mM CAA was added to the samples, which were then left to digest overnight at room temperature. Digestion was halted by introducing 1% TFA. Purification and desalting of peptides were done using SDB-RPS StageTips. This process required preparing two layers of SDB-RPS with 100 µl of wash buffer (0.2% TFA in H2O), onto which the peptides were loaded. After centrifugation for 5 min at 500 × g, peptides were washed using 150 µl wash buffer, eluted with 50 µl elution buffer (80% ACN; 1% ammonia) and vacuum-dried.
(§5) Liquid chromatography-mass spectrometry (LC-MS) analysis was conducted using an EASY-nLC-1200 system (Thermo Fisher Scientific), coupled with a timsTOF Pro spectrometer and a nano-electrospray ion source (Bruker Daltonik). […]

[3] = test system: GFP-VCF1 WT / N167A interactome, U2OS cells; test: GFP IP mass spectrometry, comparison of VCF1 WT and N167A interactomes (WT/N167A); assay type: binding, human; conditions: GFP-VCF1 WT / N167A IPs, partially denaturing RIPA buffer
Procedure: as §2, §3, §4, §5

[4] = test system: p97; test: GFP IP of GFP-VCF1 alanine mutants from U2OS cells; assay type: binding, human; conditions: full-length GFP-VCF1, U2OS
Procedure: as §3

[5] = test system: p97 (His6-p97 WT and N-domain mutants); test: Peptide/protein pulldown with purified WT or mutant His6-p97 (VRM, VIM, VBM, p47); assay type: binding, human; conditions: peptides on StrepTactin agarose (p47: protein), purified WT or mutant His6-p97, RIPA wash
Procedure: All in vitro binding experiments were performed in EBC or RIPA buffer as indicated. Recombinant Biotin-tagged K48-linked poly-ubiquitin chains (2−7) and K48-linked poly-ubiquitin chains (2−16) were purchased from R&D Systems and Enzo Life Science, respectively. Recombinant proteins were incubated with Strep-Tactin Sepharose (IBA), Glutathione agarose (Gold Biotechnology) or […] Fab-trap agarose (ChromoTek) overnight on an end-over-end rotator at 4 °C, washed six times with EBC or RIPA buffer, and resuspended in 2×Laemmli sample buffer. For p97, VCF1 or p47 pulldowns, antibodies (0.5 µg/sample) were coupled to agarose beads, incubated with recombinant proteins or cell lysates and washed with the indicated buffer. To assess p97-UFD1-NPL4 binding to ubiquitylated proteins in total cell extracts, U2OS cells were lysed in EBC buffer supplemented with protease and phosphatase inhibitors, sonicated and incubated on ice for 10 min. Lysates were cleared by centrifugation for 10 min at 16,100 × g. […]
Peptides were coupled to beads for a minimum of 2 h at 4 °C with rotation, blocked in BSA (New England Biolabs) and washed three times for 1 min, before incubation overnight at 4 °C with whole cell lysate or purified proteins. Beads were then washed three times for 1 min and bound material was eluted in 2×Laemmli sample buffer and analyzed by immunoblotting.

[6] = test system: GFP-VCF1 WT interactome, U2OS cells; test: GFP IP mass spectrometry of VCF1-interacting proteins, partially denaturing RIPA buffer (+DOX/-DOX); assay type: binding, human
Procedure: as §1, with “selection. Clones with low baseline GFP expression were visually screened for low basal GFP expression.” for “selection.”

[7] = test system: p97 with poly-ubiquitylated mEos3.2; test: In vitro p97 unfoldase assay (mEos3.2); assay type: biochemical, human; conditions: p97 100 nM hexamer, VCF1 300 nM, substrate 35 nM, 37 °C
Procedure: Di-ubiquitin-fused mEos3.2 fluorescent protein (diUb-mEos3.2) and ubiquitylation cascade proteins mUbe1, gpc78-ubc7 fusion and ubiquitin were recombinantly expressed in E. coli and purified as described previously. diUb-mEos3.2 substrate was enzymatically polyubiquitylated as described previously. […] The unfolding activity of p97 was monitored in vitro by measuring the decrease in diUb^n-mEos3.2 fluorescence. For this, diUb^n-mEos3.2 (35 nM), p97 (100 nM hexamer), UFD1-NPL4 (500 nM) and VCF1 (300 nM) were mixed as indicated in Eos assay buffer (50 mM HEPES, pH 7.5; 150 mM KCl; 2 mM MgCl2; 5% glycerol; 1 mM DTT) and pre-warmed to 37 °C for 5 min before ATP (2 mM) was added to start the reaction. Unfolding of red mEos3.2 fluorescence was measured every 15 s in a Varian Cary Eclipse spectrofluorometer (excitation: 500 nm; emission: 520 nm) and normalized to the first value after addition of ATP.

[8] = test system: p97-UFD1-NPL4 binding to ubiquitylated proteins; test: FLAG IP: p97-UFD1-NPL4 binding to ubiquitylated proteins in U2OS cell extracts; assay type: biochemical, human; conditions: U2OS total cell extracts, EBC buffer
Procedure: (§6) All in vitro binding experiments were performed in EBC or RIPA buffer as indicated. Recombinant Biotin-tagged K48-linked poly-ubiquitin chains (2−7) and K48-linked poly-ubiquitin chains (2−16) were purchased from R&D Systems and Enzo Life Science, respectively. Recombinant proteins were incubated with Strep-Tactin Sepharose (IBA), Glutathione agarose (Gold Biotechnology) or […] Fab-trap agarose (ChromoTek) overnight on an end-over-end rotator at 4 °C, washed six times with EBC or RIPA buffer, and resuspended in 2×Laemmli sample buffer. For p97, VCF1 or p47 pulldowns, antibodies (0.5 µg/sample) were coupled to agarose beads, incubated with recombinant proteins or cell lysates and washed with the indicated buffer. To assess p97-UFD1-NPL4 binding to ubiquitylated proteins in total cell extracts, U2OS cells were lysed in EBC buffer supplemented with protease and phosphatase inhibitors, sonicated and incubated on ice for 10 min. Lysates were cleared by centrifugation for 10 min at 16,100 × g. Cell lysate (40 µg) was added to recombinant proteins in EBC buffer, incubated overnight on the rotator with […] Fab-trap agarose (ChromoTek), and beads were washed six times.

[9] = test system: p97-UFD1-NPL4 binding to K48-Ub2-7; test: FLAG IP: p97-UFD1-NPL4 binding to K48-linked ubiquitin chains, purified proteins; assay type: biochemical, human; conditions: purified proteins, FLAG IP
Procedure: as §6

Substance: 5’-AGCCAGCUCUUCCAUCUUA-3’ [p47 siRNA]
effect on Ub(G76V)-GFP level [1]: had no effect

Substance: 40S ribosomal protein S29 [RPS29]
Relative protein level (log2) WT/noDox [2]: 2.611 log2

Substance: 60S ribosomal protein L19 [RPL19]
Relative protein level (log2) WT/noDox [2]: 2.902 log2

Substance: AHNAK
Relative protein level (log2) WT/MUT [3]: 2.811 log2

Substance: FLNA
Relative protein level (log2) WT/MUT [3]: 3.526 log2

Substance: G6PD
Relative protein level (log2) WT/MUT [3]: 4.291 log2

Substance: H174: alanine mutant of residue H174 in full-length VCF1
effect of alanine scan on p97 binding [4]: essential for VCF1 binding to p97

Substance: Histone H3.1 [HIST1H3A;HIST2H3A;HIST3H3;H3F3A;H3F3B]
Relative protein level (log2) WT/noDox [2]: 5.652 log2

Substance: L170: alanine mutant of residue L170 in full-length VCF1
effect of alanine scan on p97 binding [4]: essential for VCF1 binding to p97

dependence of binding on p97 Y143 [5]: required for binding to all three motifs
Substance: NLTSEELRKRREAYFEKQQQK [VBM, biotinylated VBM peptide of ATXN3 aa275-295]

dependence of binding on p97 Y143 [5]: required for binding to all three motifs
Substance: PTPDLEEKRAKLAEAAERRQKEAAS [VIM, biotinylated VIM peptide of SVIP aa14-39]

Substance: Protein FAM104A
Relative protein level (log2) WT/noDox [2]: 4.7326 log2 | Relative protein level (log2) WT/noDox [6]: 3.522 log2

Substance: Transitional endoplasmic reticulum ATPase [VCP]
Relative protein level (log2) WT/noDox [2]: 3.764 log2 | Relative protein level (log2) WT/MUT [3]: 7.367 log2 | Relative protein level (log2) WT/noDox [6]: 4.192 log2

Substance: VCF1-p97 complex: complex of VCF1 and p97
unfolding of poly-ubiquitylated mEos3.2 without UFD1-NPL4 [7]: unable to unfold a poly-ubiquitylated fluorescent model substrate (mEos3.2)

effect on p97-UFD1-NPL4 binding to K48 ubiquitin chains [9]: abrogated
Substance: mutation of the VRM: VCF1 with mutated VRM (N167A by Fig. 5c reply)
effect on p97-UFD1-NPL4 binding to ubiquitylated proteins [8]: abrogated
